Data from patent US6414014B1 (Bristol-Myers Squibb Company, priority 1992, dated 2002).

Assays:
[1] = Peripheral neuropathy symptoms (PNS) in the randomized taxol study; type: in vivo, patients
Description: A nurse remained with each patient for the first hour of each infusion. Temperature, pulse, blood pressure, and respiration were taken preinfusion, every 15 minutes for the first hour, every thirty minutes for the next 2 hours, hourly for the next 4 hours, and every other hour until the end of the infusion (for patients receiving the 24-hour infusion). Other observations were also documents, such as rash/redness of the skin, hives, vomiting, nausea, and any other symptoms including neuropathy and skin rashes.
80 of 157 patients (51%) experienced some sign of symptom of peripheral neurotoxicity. The incidents in the high dose arms was 66% (49/74), while the incidents in the low dose arms was 37% (31/83). The incidents of peripheral neuropathy in the long-term (24-hour) infusion was 48% (43/89), while the incidents of peripheral neuropathy in the short-term infusion arms was […] (37/68).

[2] = Hematologic toxicity (myelotoxicity) in the randomized taxol study, weekly blood counts; type: in vivo, patients
Description: Responses were evaluated every two cycles.
Eligible patients were randomized according to a computerized randomization log. During therapy, hematology data (hemoglobin, white blood cell count, granulocytes and platelets) were collected, and toxicity assessments were continuously made. After each cycle, a physical history update was recorded, as well as tumor measurement, performance status (ECOG), hematology, chemistry (serum creatinine, billirubin, alkaline phosphatase, (SLOT (AST), CA125) and a toxicity assessment. A quality of life assessment was also made after each cycle, and every two months until six months after treatment stopped.
White blood cell (WBC) counts, absolute neutrophil count (ANC), platelet counts, and hemoglobin (Hb) concentration were the primary variables used to evaluate treatment related myelosuppression. The World Health Orgination, WHO, grades of nadir for the entire study population of 157 patients during course 1 are presented in the table below. Leukopenia and neutropenia were the most frequent and severe hemotologic adverse effects observed during the first couse of treatment. 53% (83/156) of the patients had Grade III or IV neutropenia, while 39% (61/157) had Grade III or IV leukopenia.

[3] = arm 135/3 (mg/m^2/infusion hours), n = 39
[4] = arm 135/24 (mg/m^2/infusion hours), n = 44
[5] = arm 175/3 (mg/m^2/infusion hours), n = 29
[6] = arm 175/4 (mg/m^2/infusion hours), n = 45
[7] = TOTAL, all four arms, n = 157, course 1
[8] = arm 135/3 (mg/m^2/infusion hours), n = 39, course 1

SMILES: CC(=O)O[C@H]1C(=O)[C@@]2(C)[C@H]([C@H](OC(=O)c3ccccc3)[C@]3(O)C[C@H](OC(=O)[C@H](O)[C@@H](NC(=O)c4ccccc4)c4ccccc4)C(C)=C1C3(C)C)[C@]1(OC(C)=O)CO[C@@H]1C[C@@H]2O [taxol]
- patients asymptomatic prior to taxol who developed some peripheral neuropathy symptoms ([1]; 44 of 118 patients): 37%
- patients with some sign or symptom of peripheral neurotoxicity ([1]; 80 of 157, all arms): 51%
- First Occurence/Worsening of PNS By Cumulative Dose of Taxol: 201-400 mg/m^2 ([1]; TOTAL, all four arms, n = 157): 22 n (%)
- First Occurence/Worsening of PNS By Cumulative Dose of Taxol: 401-600 mg/m^2 ([1]; TOTAL, all four arms, n = 157): 4 n (%)
- First Occurence/Worsening of PNS By Cumulative Dose of Taxol: >600 mg/m^2 ([1]; TOTAL, all four arms, n = 157): 5 n (%)
- First Occurence/Worsening of PNS By Cumulative Dose of Taxol: ≦200 mg/m^2 ([1]; TOTAL, all four arms, n = 157): 23 n (%)
- Number of Patients Who Developed or Worsened PNS ([1]; TOTAL, all four arms, n = 157): 54 (34) n (%)
- First Occurence/Worsening of PNS By Courses: Course 1 [1, 3]: 4 n (%)
- First Occurence/Worsening of PNS By Courses: Course 3 [1, 3]: 1 n (%)
- First Occurence/Worsening of PNS By Courses: Course 4 and more [1, 3]: 3 n (%)
- First Occurence/Worsening of PNS By Cumulative Dose of Taxol: 201-400 mg/m^2 [1, 3]: 1 n (%)
- First Occurence/Worsening of PNS By Cumulative Dose of Taxol: 401-600 mg/m^2 [1, 3]: 2 n (%)
- First Occurence/Worsening of PNS By Cumulative Dose of Taxol: >600 mg/m^2 [1, 3]: 2 n (%)
- First Occurence/Worsening of PNS By Cumulative Dose of Taxol: ≦200 mg/m^2 [1, 3]: 4 n (%)
- Number of Patients Who Developed or Worsened PNS [1, 3]: 8 (21) n (%)
- First Occurence/Worsening of PNS By Courses: Course 1 [1, 4]: 3 n (%)
- First Occurence/Worsening of PNS By Courses: Course 2 [1, 4]: 2 n (%)
- First Occurence/Worsening of PNS By Courses: Course 3 [1, 4]: 1 n (%)
- First Occurence/Worsening of PNS By Courses: Course 4 and more [1, 4]: 1 n (%)
- First Occurence/Worsening of PNS By Cumulative Dose of Taxol: 201-400 mg/m^2 [1, 4]: 3 n (%)
- First Occurence/Worsening of PNS By Cumulative Dose of Taxol: 401-600 mg/m^2 [1, 4]: 1 n (%)
- First Occurence/Worsening of PNS By Cumulative Dose of Taxol: >600 mg/m^2 [1, 4]: 1 n (%)
- First Occurence/Worsening of PNS By Cumulative Dose of Taxol: ≦200 mg/m^2 [1, 4]: 3 n (%)
- Number of Patients Who Developed or Worsened PNS [1, 4]: 7 (16) n (%)
- First Occurence/Worsening of PNS By Courses: Course 1 [1, 5]: 7 n (%)
- First Occurence/Worsening of PNS By Courses: Course 2 [1, 5]: 9 n (%)
- First Occurence/Worsening of PNS By Courses: Course 3 [1, 5]: 1 n (%)
- First Occurence/Worsening of PNS By Courses: Course 4 and more [1, 5]: 1 n (%)
- First Occurence/Worsening of PNS By Cumulative Dose of Taxol: 201-400 mg/m^2 [1, 5]: 9 n (%)
- First Occurence/Worsening of PNS By Cumulative Dose of Taxol: 401-600 mg/m^2 [1, 5]: 1 n (%)
- First Occurence/Worsening of PNS By Cumulative Dose of Taxol: >600 mg/m^2 [1, 5]: 1 n (%)
- First Occurence/Worsening of PNS By Cumulative Dose of Taxol: ≦200 mg/m^2 [1, 5]: 7 n (%)
- Number of Patients Who Developed or Worsened PNS [1, 5]: 18 (62) n (%)
- First Occurence/Worsening of PNS By Courses: Course 1 [1, 6]: 9 n (%)
- First Occurence/Worsening of PNS By Courses: Course 2 [1, 6]: 8 n (%)
- First Occurence/Worsening of PNS By Courses: Course 3 [1, 6]: 1 n (%)
- First Occurence/Worsening of PNS By Courses: Course 4 and more [1, 6]: 2 n (%)
- First Occurence/Worsening of PNS By Cumulative Dose of Taxol: 201-400 mg/m^2 [1, 6]: 8 n (%)
- First Occurence/Worsening of PNS By Cumulative Dose of Taxol: 401-600 mg/m^2 [1, 6]: 2 n (%)
- First Occurence/Worsening of PNS By Cumulative Dose of Taxol: >600 mg/m^2 [1, 6]: 1 n (%)
- First Occurence/Worsening of PNS By Cumulative Dose of Taxol: ≦200 mg/m^2 [1, 6]: 9 n (%)
- Number of Patients Who Developed or Worsened PNS [1, 6]: 20 (44) n (%)
- incidence of peripheral neurotoxicity ([1]; high dose arms, 49/74): 66%
- peripheral neuropathy symptoms (PNS), about 135 mg/m^2 rather than about 175 mg/m^2 ([1]; in vivo): reduced
- incidence of peripheral neuropathy ([1]; long-term (24-hour) infusion, 43/89): 48%
- incidence of peripheral neurotoxicity ([1]; low dose arms, 31/83): 37%
- incidence of peripheral neuropathy ([1]; short-term infusion arms, 37/68): 50%
- patients with grade 4 neutropenia ([2]; 3-hour infusion, 8/68, course 1): 12%
- patients with grade 4 neutropenia ([2]; 24-hour taxol infusion, 51/88, course 1): 58%
- AMC Count, WHO grade 0 nadir, patients [2, 7]: 37 (24) n (%)
- AMC Count, WHO grade I nadir, patients [2, 7]: 13 (8) n (%)
- AMC Count, WHO grade II nadir, patients [2, 7]: 23 (15) n (%)
- AMC Count, WHO grade III nadir, patients [2, 7]: 24 (15) n (%)
- AMC Count, WHO grade IV nadir, patients [2, 7]: 59 (38) n (%)
- Platelet Count, WHO grade 0 nadir, patients [2, 7]: 147 (94) n (%)
- Platelet Count, WHO grade I nadir, patients [2, 7]: 6 (4) n (%)
- Platelet Count, WHO grade II nadir, patients [2, 7]: 2 (1) n (%)
- Platelet Count, WHO grade III nadir, patients [2, 7]: 1 (1) n (%)
- Platelet Count, WHO grade IV nadir, patients [2, 7]: 1 (1) n (%)
- WBC Count, WHO grade 0 nadir, patients [2, 7]: 31 (20) n (%)
- WBC Count, WHO grade I nadir, patients [2, 7]: 29 (18) n (%)
- WBC Count, WHO grade II nadir, patients [2, 7]: 36 (23) n (%)
- WBC Count, WHO grade III nadir, patients [2, 7]: 50 (32) n (%)
- WBC Count, WHO grade IV nadir, patients [2, 7]: 11 (7) n (%)
- patients with severe neutropenia (WHO Grade III and IV) during at least one course ([2]; all arms): 63%
- AMC Count, WHO grade 0 nadir, patients [2, 8]: 18 (46) n (%)
- AMC Count, WHO grade I nadir, patients [2, 8]: 8 (21) n (%)
- AMC Count, WHO grade II nadir, patients [2, 8]: 8 (21) n (%)
